Reference: DBAASP
≈ marks a conversion by molar mass, not a printed value.

Legend:
Assay in all cases: ≥ marks a high value that may be exact or a test limit, other limits are often not marked, values filed in µg/mL are converted to µM
[1] = system: Aeromonas salmonicida 97-4
[2] = system: Aeromonas salmonicida 99-1
Candida albicans C627 = system: Candida albicans C627
[3] = system: Escherichia coli CGSC 4908
Escherichia coli DC2 = system: Escherichia coli DC2
Escherichia coli UB1005 = system: Escherichia coli UB1005
[4] = system: Pseudomonas aeruginosa K799
[5] = system: Pseudomonas aeruginosa Z61
[6] = system: Salmonella enterica serovar typhimurium MS7953s
[7] = system: Salmonella enterica subsp. enterica serovar Typhimurium ATCC 14028s
[8] = system: Staphylococcus aureus C623
[9] = system: Staphylococcus epidermidis C621
[10] = system: Bifidobacterium adolescentis
Citrobacter koseri = system: Citrobacter koseri
Enterococcus faecium = system: Enterococcus faecium
Escherichia coli BL21 = system: Escherichia coli BL21
Escherichia coli JM109 = system: Escherichia coli JM109
[11] = system: Klebsiella pneumoniae CCRC 10694
[12] = system: Lactobacillus delbrueckii subsp. bulgaricus
Pseudomonas aeruginosa = system: Pseudomonas aeruginosa
Salmonella enterica = system: Salmonella enterica
[13] = system: Salmonella typhimurium CCRC 12947
[14] = system: Staphylococcus aureus CCRC 12652
[15] = system: Staphylococcus aureus CCRC 15211
Staphylococcus xylosus = system: Staphylococcus xylosus
[16] = system: Vibrio parahaemolyticus CCRC 10806
[17] = system: Acinetobacter baumannii ATCC 19606
[18] = system: Escherichia coli BW25113 ΔsbmA
Escherichia coli BW25113 = system: Escherichia coli BW25113
Escherichia coli = system: Escherichia coli
[19] = system: Klebsiella pneumoniae ATCC 700603
[20] = system: Pseudomonas aeruginosa ATCC 27853
[21] = system: Staphylococcus aureus ATCC 25923
[22] = system: Escherichia coli ATCC 25922
[23] = system: Salmonella enterica subsp. enterica serovar Typhimurium ATCC 14028
[24] = system: Escherichia coli K12 MG1655
Escherichia coli UTI89 = system: Escherichia coli UTI89
[25] = system: Staphylococcus epidermidis

In the case of `CC(=O)[C@H](CC(C)C)NC(=O)[C@H](Cc1ccc(O)cc1)NC(=O)[C@H](Cc1cnc[nH]1)NC(=O)[C@H](CC(=O)O)NC(=O)[C@H](CC(C)C)NC(=O)[C@H](C)NC(=O)[C@H](CC(C)C)NC(=O)CNC(=O)CNC(=O)[C@@H](NC(=O)[C@@H](NC(=O)[C@H](CCCCN)NC(=O)CNC(=O)[C@@H](NC(=O)[C@H](CCCCN)NC(=O)[C@H](CCCCN)NC(=O)[C@H](C)NC(=O)[C@H](CCCCN)NC(=O)[C@H](CCCNC(=N)N)NC(=O)[C@H](Cc1ccccc1)NC(=O)[C@@H](NC(=O)[C@H](CO)NC(=O)[C@H](CCCCN)NC(=O)[C@H](Cc1c[nH]c2ccccc12)NC(=O)CN)C(C)C)C(C)C)[C@@H](C)O)C(C)C` [GWKSVFRKAKKVGKTVGGLALDHYL], the MIC [1] is reported as 2.9 µM (≈ 7.99 µg/mL), the MIC [2] is reported as 2.9 µM (≈ 7.99 µg/mL) and the MIC (Candida albicans C627) is reported as 11.6 µM (≈ 32 µg/mL). The MIC [3] was 1.45 µM (≈ 4 µg/mL), the MIC (Escherichia coli DC2) was 1.45 µM (≈ 4 µg/mL) and the MIC (Escherichia coli UB1005) was 5.8 µM (≈ 16 µg/mL). The MIC [4] was 11.6 µM (≈ 32 µg/mL), the MIC [5] was 1.45 µM (≈ 4 µg/mL) and the MIC [6] was 1.45 µM (≈ 4 µg/mL). The MIC [7] was 11.6 µM (≈ 32 µg/mL), the MIC [8] was 23.2 µM (≈ 64 µg/mL) and the MIC [9] was 23.2 µM (≈ 64 µg/mL).
In the case of `CC[C@H](C)[C@H](NC(=O)[C@H](CC(N)=O)NC(=O)[C@H](CCCCN)NC(=O)[C@H](CC(C)C)NC(=O)[C@H](CCCCN)NC(=O)[C@@H](N)CC(C)C)C(=O)N[C@H](C(=O)N[C@@H](CO)C(=O)N[C@@H](Cc1c[nH]c2ccccc12)C(=O)N[C@@H](C)C(=O)N[C@@H](CCCCN)C(=O)N[C@@H](CCCCN)C(=O)N[C@H](C(=O)N[C@@H](CC(C)C)C(N)=O)C(C)C)C(C)C` [LKLKNIVSWAKKVL], the MIC [10] is reported as ≥ 78 µM, the MIC (Citrobacter koseri) is reported as 2.44 µM (≈ 4 µg/mL) and the MIC (Enterococcus faecium) is reported as ≥ 78 µM. For the same molecule, the MIC (Escherichia coli BL21) was 4.88 µM (≈ 8 µg/mL), the MIC (Escherichia coli JM109) was 1.22 µM (≈ 2 µg/mL) and the MIC [11] was ≥ 39 µM. For the same molecule, the MIC [12] was ≥ 78 µM, the MIC (Pseudomonas aeruginosa) was 39 µM (≈ 64 µg/mL) and the MIC (Salmonella enterica) was 19.5 µM (≈ 32 µg/mL). It also gave an MIC [13] of 19.5 µM (≈ 32 µg/mL), an MIC [14] of 13.8 µM (≈ 22.6 µg/mL) and an MIC [15] of 19.5 µM (≈ 32 µg/mL). For the same molecule, the MIC (Staphylococcus xylosus) was 0.61 µM (≈ 0.999 µg/mL) and the MIC [16] was 9.76 µM (≈ 16 µg/mL).
`CC[C@H](C)[C@H](NC(=O)[C@@H]1CCCN1C(=O)[C@H](CCCN=C(N)N)NC(=O)[C@H](CCCN=C(N)N)NC(=O)[C@H](Cc1c[nH]c2ccccc12)NC(=O)[C@@H](N)CCCN=C(N)N)C(=O)N[C@@H](CCCN=C(N)N)C(=O)N[C@@H](CCCN=C(N)N)C(=O)N[C@@H](CCCN=C(N)N)C(=O)N1CCC[C@H]1C(=O)N[C@H](C(=O)N[C@@H](CCCN=C(N)N)C(=O)N1CCC[C@H]1C(=O)N1CCC[C@H]1C(=O)N[C@@H](Cc1ccccc1)C(=O)N[C@@H](Cc1c[nH]c2ccccc12)C(=O)N[C@@H](CCCN=C(N)N)C(=O)O)[C@@H](C)CC` [RWRRPIRRRPIRPPFWR] was tested, and the MIC [17] was 8 µM (≈ 19.2 µg/mL), the MIC [18] was 4 µM (≈ 9.61 µg/mL) and the MIC (Escherichia coli BW25113) was 4 µM (≈ 9.61 µg/mL). For the same molecule, the MIC (Escherichia coli) was 1.41 µM (≈ 3.4 µg/mL), the MIC [19] was 4 µM (≈ 9.61 µg/mL) and the MIC [20] was 32 µM (≈ 76.9 µg/mL). It also gave an MIC [21] of 64 µM (≈ 154 µg/mL).
`CC[C@H](C)[C@H](NC(=O)[C@@H]1CCCN1C(=O)[C@@H]1CCCN1C(=O)[C@H](CCCN=C(N)N)NC(=O)[C@H](Cc1ccccc1)NC(=O)[C@@H]1CCCN1C(=O)[C@@H]1CCCN1C(=O)[C@H](Cc1ccc(O)cc1)NC(=O)[C@H](Cc1ccccc1)NC(=O)[C@@H]1CCCN1C(=O)[C@@H]1CCCN1C(=O)[C@H](CCCN=C(N)N)NC(=O)[C@@H](NC(=O)[C@@H]1CCCN1C(=O)[C@@H]1CCCN1C(=O)[C@H](CCCN=C(N)N)NC(=O)[C@H](CCCN=C(N)N)NC(=O)[C@@H](NC(=O)[C@@H]1CCCN1C(=O)[C@@H]1CCCN1C(=O)[C@@H](N)CCCN=C(N)N)[C@@H](C)CC)[C@@H](C)CC)C(=O)N[C@@H](CCCN=C(N)N)C(=O)N1CCC[C@H]1C(=O)O` [RPPIRRPPIRPPFYPPFRPPIRP] was tested, and the MIC [17] was 8 µM (≈ 22.6 µg/mL), the MIC [22] was 8 µM (≈ 22.6 µg/mL) and the MIC [18] was ≥ 64 µM. For the same molecule, the MIC (Escherichia coli BW25113) was 4 µM (≈ 11.3 µg/mL), the MIC [19] was > 64 µM and the MIC [20] was > 64 µM. For the same molecule, the MIC [23] was > 64 µM and the MIC [21] was > 64 µM.
With `CC[C@H](C)[C@H](NC(=O)[C@H](CCCCN)NC(=O)[C@H](CCC(N)=O)NC(=O)[C@H](Cc1c[nH]c2ccccc12)NC(=O)[C@@H](NC(=O)[C@H](CCCCN)NC(=O)[C@@H](N)CCCCN)[C@@H](C)CC)C(=O)N[C@@H](CCCN=C(N)N)C(=O)N[C@@H](CC(N)=O)C(=O)N[C@@H](Cc1ccccc1)C(=O)N[C@@H](Cc1ccccc1)C(=O)N[C@@H](CCC(N)=O)C(=O)N[C@@H](CCCCN)C(=O)N[C@@H](CC(C)C)C(=O)O` [KKIWQKIRNFFQKL] the MIC [24] was 12.5 µM (≈ 23.5 µg/mL), the MIC (Escherichia coli UTI89) was 12.5 µM (≈ 23.5 µg/mL) and the MIC [23] was > 50 µM. For the same molecule, the MIC [25] was ≥ 50 µM.
With `CC[C@H](C)[C@H](NC(=O)[C@H](CCCCN)NC(=O)[C@H](CCC(N)=O)NC(=O)[C@H](Cc1c[nH]c2ccccc12)NC(=O)[C@@H](NC(=O)[C@H](CCCCN)NC(=O)[C@@H](N)CCCCN)[C@@H](C)CC)C(=O)N[C@@H](CCCCN)C(=O)N[C@@H](CC(N)=O)C(=O)N[C@@H](Cc1ccccc1)C(=O)N[C@@H](Cc1ccccc1)C(=O)N[C@@H](CCCN=C(N)N)C(=O)N[C@@H](CCCCN)C(=O)N[C@@H](CC(C)C)C(=O)O` [KKIWQKIKNFFRKL] the MIC [24] was ≥ 50 µM, the MIC (Escherichia coli UTI89) was 25 µM (≈ 46.9 µg/mL) and the MIC [23] was > 50 µM. It also gave an MIC [25] of 12.5 µM (≈ 23.5 µg/mL).
In the case of `CC[C@H](C)[C@H](NC(=O)[C@H](CCCCN)NC(=O)CNC(=O)[C@@H](NC(=O)[C@H](Cc1cnc[nH]1)NC(=O)[C@H](Cc1cnc[nH]1)NC(=O)[C@@H](NC(=O)CNC(=O)[C@H](Cc1cnc[nH]1)NC(=O)[C@H](Cc1ccccc1)NC(=O)[C@H](CC(C)C)NC(=O)[C@H](CC(C)C)NC(=O)[C@H](CCCNC(=N)N)NC(=O)[C@H](Cc1ccccc1)NC(=O)[C@@H](N)Cc1ccccc1)C(C)C)C(C)C)C(=O)N[C@@H](CCCCN)C(=O)N1CCC[C@H]1C(=O)N[C@@H](CCCNC(=N)N)C(=O)N[C@@H](C)C(C)=O` [FFRLLFHGVHHVGKIKPRA], the MIC [1] is reported as 14.2 µM (≈ 32 µg/mL), the MIC [2] is reported as 28.3 µM (≈ 63.9 µg/mL) and the MIC (Candida albicans C627) is reported as 28.3 µM (≈ 63.9 µg/mL). The MIC [3] was 14.2 µM (≈ 32 µg/mL), the MIC (Escherichia coli DC2) was 14.2 µM (≈ 32 µg/mL) and the MIC (Escherichia coli UB1005) was 14.2 µM (≈ 32 µg/mL). For the same molecule, the MIC [4] was 14.2 µM (≈ 32 µg/mL), the MIC [5] was 3.54 µM (≈ 7.99 µg/mL) and the MIC [6] was 7.08 µM (≈ 16 µg/mL). The MIC [7] was 28.3 µM (≈ 63.9 µg/mL), the MIC [8] was 28.3 µM (≈ 63.9 µg/mL) and the MIC [9] was 14.2 µM (≈ 32 µg/mL).
